Measurements as given in ChEMBL document CHEMBL5260825, “Chemical Constituents of Bryophytes: Structures and Biological Activity” (J Nat Prod, 2018).
pIC50: −log10 of the molar value. ≈ marks a conversion by molar mass, not a printed value.

What was measured:
[1] = target: T1, Polyunsaturated fatty acid 5-lipoxygenase (Homo sapiens) (UniProt P09917); experiment: Inhibition of ALOX5 (unknown origin) at 0.000001 M relative to control; details: dose 1 µM
T1 sequence (whole entry): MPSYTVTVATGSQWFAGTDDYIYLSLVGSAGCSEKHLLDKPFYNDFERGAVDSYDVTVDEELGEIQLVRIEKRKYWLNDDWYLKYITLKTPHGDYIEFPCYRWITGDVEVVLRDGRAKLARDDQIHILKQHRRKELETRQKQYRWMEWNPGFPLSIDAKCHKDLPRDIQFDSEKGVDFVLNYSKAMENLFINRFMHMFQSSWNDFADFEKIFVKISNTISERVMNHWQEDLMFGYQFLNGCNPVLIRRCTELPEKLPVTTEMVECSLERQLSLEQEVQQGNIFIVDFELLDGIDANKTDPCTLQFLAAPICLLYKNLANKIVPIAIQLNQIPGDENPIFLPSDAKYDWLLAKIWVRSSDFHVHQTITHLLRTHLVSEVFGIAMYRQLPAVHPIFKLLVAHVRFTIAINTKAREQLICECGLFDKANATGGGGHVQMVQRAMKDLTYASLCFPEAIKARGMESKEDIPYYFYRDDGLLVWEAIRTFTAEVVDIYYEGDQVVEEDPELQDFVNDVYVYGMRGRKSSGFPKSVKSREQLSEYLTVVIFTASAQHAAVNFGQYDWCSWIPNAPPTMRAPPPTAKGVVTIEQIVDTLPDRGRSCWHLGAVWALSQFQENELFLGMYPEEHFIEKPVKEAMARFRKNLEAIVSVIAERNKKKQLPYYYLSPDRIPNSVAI

Cyclooxygenase = Cyclooxygenase (Homo sapiens, UniProt P35354+P23219); experiment: Inhibition of COX (unknown origin); type: protein assay
[2] = system: Peritoneal macrophage cell; experiment: Inhibition of superoxide anion radical release in guinea pig peritoneal macrophages; type: functional, cell-based; details: Cavia porcellus
P388 = experiment: Antiproliferative activity against mouse P388 cells assessed as cell growth inhibition; type: functional, cell-based
RAW264.7 [3] = experiment: Inhibition of LPS-induced NO production in mouse RAW264.7 cells incubated for 24 hrs by Griess reagent based assay; type: functional, cell-based; details: RAW264.7, 24 h
HL-60 = experiment: Antiproliferative activity against human HL-60 cells assessed as cell growth inhibition; type: functional, cell-based
[4] = system: Trichostrongylus colubriformis; experiment: Anthelmintic activity against third stage larvae of Trichostrongylus colubriformis by microscope based analysis; type: functional, organism-based
RAW264.7 [5] = experiment: Inhibition of LPS-induced NO production in mouse RAW264.7 cells; type: functional, cell-based
KB = experiment: Antiproliferative activity against human KB cells assessed as cell growth inhibition; type: functional, cell-based
U-251 = experiment: Antiproliferative activity against human U-251MG cells assessed as cell growth inhibition; type: functional; details: read-out: ED50 (the source's name)
DNA polymerase beta = DNA polymerase beta (Homo sapiens, UniProt P06746); experiment: Inhibition of DNA polymerase beta (unknown origin)
RPMI-7951 = experiment: Antiproliferative activity against human RPMI-7951 cells assessed as cell growth inhibition; type: functional; details: read-out: ED50 (the source's name)
Bacillus subtilis = experiment: Antibacterial activity against Bacillus subtilis assessed as inhibition of bacterial growth; type: functional
[6] = Antioxidant activity assessed as DPPH radical scavenging activity; type: functional
Staphylococcus aureus = experiment: Antibacterial activity against Staphylococcus aureus assessed as inhibition of bacterial growth by agar diffusion method; type: functional

## CC1=CCc2c(cc(CCc3ccccc3)c(C(=O)O)c2O)OC1
[1]
  inhibition: 4%
Cyclooxygenase
  IC50: 39.7 µM

## C=C1[C@@H]2CCC3[C@@](CC(=O)[C@@H]4C(C)(C)CCC[C@@]34CO[C@@H]3O[C@H](CO)[C@@H](O)[C@H](O)[C@H]3O)(C2)[C@@H]1O (some centres undefined)
[2]
  IC50: 12.5 µg/mL (≈ 26 µM)

## CC1=CCc2c(O)cc(CCc3ccc(O)cc3)cc2OC1
[1]
  inhibition: 4%

## C=C1C(=O)O[C@H]2C3=C(C)CCC[C@@]3(C)CC[C@H]12
P388
  IC50: 1.1 µg/mL (≈ 4.73 µM)

## Cc1ccc(O)c([C@@]2(C)CCCC2(C)C)c1
RAW264.7 [3]
  pIC50: 5.39

## C[C@]12COc3cc(CCc4ccccc4)c(C(=O)O)c(O)c3[C@H]1C2
[2]
  IC50: 6 µg/mL (≈ 18.5 µM)

## C=C1C(=O)[C@]23C[C@H]1CC[C@H]2[C@]1(C)CCCC(C)(C)[C@H]1[C@@H](O)C3
HL-60
  pIC50: 6.40

## COc1cc(/C=C\c2ccccc2)ccc1O
[4]
  IC50: 70 µg/mL (≈ 309 µM)

## C=C1CCC[C@H]2C(=C)C(=O)O[C@@]23[C@@H](C)CC[C@@H]13
HL-60
  IC50: 5.3 µg/mL

## CC1(C)[C@H](OC(=O)/C=C/c2ccc(O)c(O)c2)CC[C@]2(C)[C@H]3C4C[C@@]12C[C@]43C
[2]
  IC50: 7.5 µg/mL (≈ 19.6 µM)

## CC1=CCc2c(O)cc(CCc3ccccc3O)cc2OC1
RAW264.7 [5]
  pIC50: 5.35

## C=C1C(=O)[C@@]23CC[C@@H]4C(C)(C)CC[C@H](O)[C@@]4(C)C2=CC[C@@H]1C3
HL-60
  pIC50: 5.15

## C=C1C(=O)O[C@H]2C[C@@]3(C)CCC=C(C)[C@@H]3C[C@@H]12
HL-60
  IC50: 1.4 µg/mL
KB
  IC50: 3.3 µg/mL (≈ 14.2 µM)

## C=C1C(=O)O[C@H]2C/C(C)=C/CC[C@@]3(C)O[C@H]3C[C@H]12
HL-60
  pIC50: 5.07

## C=C1C(=O)O[C@@H]2/C=C(\C)CC/C=C(\C)CC(OC(C)=O)[C@@H]12 (some centres undefined)
HL-60
  pIC50: 5.34

## Oc1cc(CCc2ccccc2O)c2ccoc2c1
RAW264.7 [5]
  pIC50: 5.35

## CC(C)=CCC/C(C)=C/Cc1c(O)cc(O)cc1CCc1ccccc1
RAW264.7 [5]
  pIC50: 5.35

## C=C1C(=O)C[C@H]2[C@H]3[C@@H]1[C@]2(C)CCCC3(C)C
P388
  IC50: 1 µg/mL (≈ 4.58 µM)

## COc1cc(OC)c2c3c1-c1c(O)cccc1[C@@H]1Oc4ccccc4[C@@H](C[C@@H]2O)[C@@H]31
U-251
  EC50: 0.8 µg/mL (≈ 1.99 µM)

## CC1=CCc2c(O)cc(CCc3ccccc3)cc2OC1
[1]
  inhibition: 4%
RAW264.7 [5]
  pIC50: 5.35

## Oc1ccc2c(c1)CCc1ccc(cc1)Oc1cc(cc(-c3cc4c(cc3O)CCc3ccc(cc3)Oc3cc(ccc3O)CCc3ccc-4c(O)c3)c1O)CCc1ccc-2c(O)c1
DNA polymerase beta
  pIC50: 5.29

## C=C1C(=O)[C@@H]2C3=C(CC[C@@H]4C(C)(C)CCC[C@@]34C)C[C@H]1[C@@H]2O
HL-60
  pIC50: 5.89

## C=C1C(=O)[C@@]23CC[C@@H]4C(C)(C)CCC[C@@]4(C)C2=CC(=O)[C@@H]1C3
HL-60
  pIC50: 6.23

## C=C[C@@]1(O)CC(=O)[C@@]2(C(=O)OC)[C@H](C)CC[C@@]2(C)[C@@H]1C
HL-60
  pIC50: 5.57

## COc1cc(/C=C/c2ccccc2)ccc1O
[4]
  IC50: 60 µg/mL (≈ 265 µM)

## COc1cc(CCc2cccc(Oc3c(O)cccc3CCc3ccc(O)cc3)c2)cc(O)c1O
Cyclooxygenase
  IC50: 45.2 µM
DNA polymerase beta
  pIC50: 4.84

## Cc1cc([C@@]2(C)CCCC2(C)C)ccc1O
RAW264.7 [3]
  pIC50: 5.39

## O=C(/C=C/c1ccccc1)c1cc(O)cc2c1CC(c1ccccc1)O2 (centres undefined) [PALLIDISETIN A]
U-251
  EC50: 2 µg/mL (≈ 5.84 µM)
RPMI-7951
  EC50: 1 µg/mL (≈ 2.92 µM)

## Oc1cccc(CCc2ccc(Oc3cc(CCc4cccc(O)c4)cc(O)c3O)cc2)c1 [PERROTETTIN F]
DNA polymerase beta
  pIC50: 4.84

## CC1(C)CCC[C@]1(C)c1cc(CCc2cc(O)c(O)c([C@@]3(C)CCCC3(C)C)c2)cc(O)c1O
Bacillus subtilis
  MIC: 2 µg/mL (≈ 4.29 µM)
RAW264.7 [3]
  pIC50: 5.39
[6]
  IC50: 2 µg/mL (≈ 4.29 µM)
HL-60
  IC50: 2.5 µg/mL

## Cc1cc([C@@]2(C)CCCC2(C)C)c(O)c(O)c1Cc1cc(O)c(O)c([C@@]2(C)CCCC2(C)C)c1
Staphylococcus aureus
  diameter of the inhibition zone (DIZ): 13 mm
Bacillus subtilis
  MIC: 2 µg/mL (≈ 4.29 µM)
RAW264.7 [3]
  pIC50: 5.39
[6]
  IC50: 2.7 µg/mL (≈ 5.79 µM)
HL-60
  IC50: 2.4 µg/mL

## CC(C)(O)[C@H]1CC[C@@]2(C)C1CC[C@]1(C)C2CCC2[C@@]3(C)CCCC(C)(C)[C@@H]3[C@@H](O)C[C@]21C (some centres undefined)
P388
  IC50: 1.1 µg/mL (≈ 2.47 µM)
